Experiments:
[1] = target: T1, biotinylated truncated STAT6 (123-632)-avi (Homo sapiens, UniProt P42226); assay: STAT6 HTRF binding assay; conditions: 0.15 nM biotinylated truncated STAT6 (123-632)-avi, 20 nM fluorescein-labeled probe
T1 construct: biotinylated truncated STAT6 (123-632)-avi purified from E. coli; made in house; host or cells: E. coli
T1 sequence (P42226 123-632 limits assumed): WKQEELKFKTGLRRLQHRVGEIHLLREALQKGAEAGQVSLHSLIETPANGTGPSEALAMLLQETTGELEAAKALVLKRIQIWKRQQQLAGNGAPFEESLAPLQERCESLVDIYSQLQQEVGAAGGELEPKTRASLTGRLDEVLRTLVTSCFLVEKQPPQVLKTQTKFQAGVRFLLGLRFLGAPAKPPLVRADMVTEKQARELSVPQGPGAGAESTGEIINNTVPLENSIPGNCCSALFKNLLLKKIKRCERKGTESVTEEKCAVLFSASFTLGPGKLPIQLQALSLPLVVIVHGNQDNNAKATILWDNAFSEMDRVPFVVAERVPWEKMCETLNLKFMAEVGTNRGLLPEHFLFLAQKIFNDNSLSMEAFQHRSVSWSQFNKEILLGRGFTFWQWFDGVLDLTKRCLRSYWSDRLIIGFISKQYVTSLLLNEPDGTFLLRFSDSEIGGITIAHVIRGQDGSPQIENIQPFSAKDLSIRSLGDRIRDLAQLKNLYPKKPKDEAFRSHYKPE
Procedure: HTRF binding assays were performed using 0.15 nM biotinylated truncated STAT6 (123-632)-avi purified from E. coli, 1× Streptavidin-terbium (CisBio) prepared by mixing SA-Tb in PPI detection buffer (CisBio), 20 nM proprietary fluorescein-labeled probe, and test compounds in assay buffer consisting of 50 mM HEPES-Na pH 7.5, 100 mM NaCl, 1 mM EDTA, 2 mM DTT, 0.1% Tween-20 with a final volume of 20 uL. Compound stocks were dissolved at 10 mM in 100% DMSO and 11 point titration with 3 fold serial dilution was performed in white, opaque 384 well microplates. Reaction plates were incubated at room temperature for 30 minutes. Plates were centrifuged at low rpm for 5 mins, and the ratio of fluorescence intensities were measured at emission wavelengths for fluorescein acceptor (520 nm) and terbium donor (495 nm) on Envision Plate reader. % Inhibition was calculated from the 520/495 ratio generated by using proprietary positive control compound for 100% inhibition and DMSO only reactions for 0% inhibition. Data was processed and dose response curves were generated using GraphPad Prism to determine the concentration required for inhibiting 50% of the HTRF signal (IC50).
The letter codes for IC50 (μM) include: A (<0.1 μM); B (0.1-1 μM); C (>1-10 μM); D (>10-100 μM); E (>100 μM); and F (not tested).

[2] = target: T2, STAT6 (Homo sapiens, UniProt P42226); assay: STAT6 MSD degradation in A549 cells; format: cell-based; conditions: 24 h
T2 construct: endogenous in cells; host or cells: A549
T2 sequence (P42226 1-847): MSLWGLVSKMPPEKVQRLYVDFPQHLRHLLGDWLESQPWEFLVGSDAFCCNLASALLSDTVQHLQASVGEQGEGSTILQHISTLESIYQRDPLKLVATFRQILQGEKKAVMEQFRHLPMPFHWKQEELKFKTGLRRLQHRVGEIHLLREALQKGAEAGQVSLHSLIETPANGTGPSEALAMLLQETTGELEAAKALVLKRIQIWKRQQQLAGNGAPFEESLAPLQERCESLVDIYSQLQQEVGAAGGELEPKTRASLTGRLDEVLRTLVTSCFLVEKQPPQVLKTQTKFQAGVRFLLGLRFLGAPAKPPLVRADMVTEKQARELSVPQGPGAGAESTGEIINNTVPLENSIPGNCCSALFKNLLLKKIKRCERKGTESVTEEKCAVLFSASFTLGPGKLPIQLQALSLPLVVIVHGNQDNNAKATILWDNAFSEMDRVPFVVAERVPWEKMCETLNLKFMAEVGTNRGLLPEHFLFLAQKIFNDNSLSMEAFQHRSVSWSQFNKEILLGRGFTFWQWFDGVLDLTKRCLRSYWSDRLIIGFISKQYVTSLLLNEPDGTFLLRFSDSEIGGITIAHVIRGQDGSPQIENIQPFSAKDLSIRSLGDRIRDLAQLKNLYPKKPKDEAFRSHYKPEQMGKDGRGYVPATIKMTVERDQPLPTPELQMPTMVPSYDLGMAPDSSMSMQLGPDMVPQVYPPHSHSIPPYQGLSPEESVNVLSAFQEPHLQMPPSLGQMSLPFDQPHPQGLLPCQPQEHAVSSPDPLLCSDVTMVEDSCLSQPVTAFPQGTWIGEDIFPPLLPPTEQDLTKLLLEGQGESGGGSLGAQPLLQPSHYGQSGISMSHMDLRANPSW
Procedure: Degradation of STAT6 in cells was quantitatively measured using Meso Scale Discovery (MSD) technology. A549 cells were seeded in 96-well plates with a density of 1.5×10e4 to 5×10e5 cells per well in 100 μl fresh media. Compounds were then added to the assay plates with a final top concentration of up to 10 uM in a 1:3 dilution series with total of 9 doses. The assay plates were then incubated for 4 to 24 hours at 37° C. under 5% CO2. The assay plates were then centrifuged for 5 minutes and the cell pellets were treated with 100 μl/well RIPA lysis buffer (Boston Bioproducts, BP-115D) with protease and phosphatase inhibitors (Roche, 05892791001 and 04906837001). To prepare the MSD assay plates (MSD, L15XA), the plates were coated with the capture antibody (Abnova, H00006778) in PBS, at 40 μl/well. The plates were then incubated overnight at 4° C., washed 1 time with 150 μl/well TBST buffer (Cell Signaling Technology, #9997S) and blocked with 150 μl/well blocking buffer (MSD, R93BA-4). Cell lysates were then added to MSD assay plates and the plates were incubated at room temperature for 1 hour. The plates were then washed 3 times with 150 μl/well TBST buffer and 25 μl/well primary detection antibody (Cell Signaling Technology, #5397S). The assay plates were then incubated at room temperature for 1 hour, washed 3 times with 150 μl/well TBST buffer, and 25 μl/well secondary detection antibody, SULFO-TAG anti-rabbit antibody (MSD, R32AB-1) were added. The assay plates were then incubated at room temperature for 1 hour, washed 3 times with 150 μl/well TBST buffer, and 150 μl/well MSD reading buffer (MSD, R92TC-2) were added. The plates were then analyzed by an MSD reader. The data was analyzed by GraphPad Prism and the dose dependent STAT6 degradation was fit using the four-parameter inhibitor vs. response nonlinear regression.
The letter codes for DC50 (nM) include: A (<1 nM); B (1-10 nM); C (>10-100 nM); D (>100-1000 nM); E (>1000 nM); and F (not tested). The letter codes for Dmax (oo) include: A (>90%); B (>70-90%); C (>50-70%); D ([…]); and F (not tested).

Row | SMILES | IC50 ([1]; 30 minutes at room temperature) | DC50 [2] | Dmax [2] | IC50 ([1]; HTRF binding)
1 | CN(C)C(=O)c1cc2c(F)c(C3CCCN(C(=O)CCn4cccn4)C3)cc(-c3ccc(N4CCN(CCc5ccc(C6CCC(=O)NC6=O)c(Cl)c5)CC4)cc3)c2o1 (single isomer, unassigned) [Example I-281] | 100 to 1000 nM | 10 to 100 nM | 70 to 90% | 
2 | CN(C)C(=O)c1cc2c(-c3ccc(C4CCN(c5ccc([C@@H]6CCC(=O)NC6=O)cc5F)CC4)cc3)cc(C3=CCCN(C(=O)CCn4cccn4)C3)c(F)c2[nH]1 (single isomer, unassigned) [Example I-742] |  | < 1 nM | > 90% | < 100 nM
3 | CN(C)C(=O)c1cc2c(-c3ccc(C4CCN(c5ccc([C@H]6CCC(=O)NC6=O)cc5F)CC4)cc3)cc(C3=CCCN(C(=O)CCn4cccn4)C3)c(F)c2[nH]1 (single isomer, unassigned) [Example I-743] |  | < 1 nM | > 90% | < 100 nM
4 | COc1cc(N2CCN(c3ccc(-c4cc(C5=CCCN(C(=O)CCn6cccn6)C5)c(F)c5[nH]c(C(=O)N(C)C)cc45)c(F)c3F)CC2)c(F)cc1N[C@@H]1CCC(=O)NC1=O (single isomer, unassigned) [Example I-744] |  | < 1 nM | > 90% | < 100 nM
5 | COc1cc(N2CCN(c3ccc(-c4cc(C5=CCCN(C(=O)CCn6cccn6)C5)c(F)c5[nH]c(C(=O)N(C)C)cc45)c(F)c3F)CC2)c(F)cc1N[C@H]1CCC(=O)NC1=O (single isomer, unassigned) [Example I-745] |  | < 1 nM | > 90% | < 100 nM
6 | Cc1cc(C2CCN(c3cccc4c3n(C)c(=O)n4[C@@H]3CCC(=O)NC3=O)CC2)ccc1-c1cc(C2=CCCN(C(=O)C(C)C)C2)c(F)c2[nH]c(C(=O)N(C)C)cc12 (single isomer, unassigned) [Example I-790] |  | 1 to 10 nM | > 90% | 1000 to 10000 nM
7 | Cc1cc(C2CCN(c3cccc4c3n(C)c(=O)n4[C@H]3CCC(=O)NC3=O)CC2)ccc1-c1cc(C2=CCCN(C(=O)C(C)C)C2)c(F)c2[nH]c(C(=O)N(C)C)cc12 (single isomer, unassigned) [Example I-791] |  | < 1 nM | > 90% | 1000 to 10000 nM
8 | COc1cc(N2CCC(c3ccc(-c4cc(C5=CCCN(C(=O)CCn6cccn6)C5)c(F)c5[nH]c(C(=O)N(C)C)cc45)c(OC(F)(F)F)c3)CC2)c(F)cc1N[C@@H]1CCC(=O)NC1=O (single isomer, unassigned) [Example I-792] |  | 1 to 10 nM | 70 to 90% | < 100 nM
9 | COc1cc(N2CCC(c3ccc(-c4cc(C5=CCCN(C(=O)CCn6cccn6)C5)c(F)c5[nH]c(C(=O)N(C)C)cc45)c(OC(F)(F)F)c3)CC2)c(F)cc1N[C@H]1CCC(=O)NC1=O (single isomer, unassigned) [Example I-793] |  | 1 to 10 nM | 70 to 90% | < 100 nM
10 | COc1cc(N2CCN(c3ccc(-c4cc(C5=CCCN(C(=O)CCn6cccn6)C5)c(F)c5[nH]c(C(=O)N(C)C)cc45)cc3)CC2)c(F)cc1N[C@@H]1CCC(=O)NC1=O (single isomer, unassigned) [Example I-794] |  | < 1 nM | 70 to 90% | 
11 | COc1cc(N2CCN(c3ccc(-c4cc(C5=CCCN(C(=O)CCn6cccn6)C5)c(F)c5[nH]c(C(=O)N(C)C)cc45)cc3)CC2)c(F)cc1N[C@H]1CCC(=O)NC1=O (single isomer, unassigned) [Example I-795] |  | < 1 nM | > 90% | < 100 nM
12 | CN(C)C(=O)c1cc2c(-c3ccc(C4CCN(c5ccc(N[C@H]6CCC(=O)NC6=O)cc5F)CC4)cc3)cc(C3=CCCN(C(=O)CCn4cccn4)C3)c(F)c2[nH]1 (single isomer, unassigned) [Example I-796] |  | < 1 nM | 70 to 90% | < 100 nM
13 | CN(C)C(=O)c1cc2c(-c3ccc(C4CCN(c5ccc(N[C@@H]6CCC(=O)NC6=O)cc5F)CC4)cc3)cc(C3=CCCN(C(=O)CCn4cccn4)C3)c(F)c2[nH]1 (single isomer, unassigned) [Example I-797] |  | 1 to 10 nM | 70 to 90% | < 100 nM
14 | CC(=O)N1CCC=C(c2cc(-c3ccc(C4CCN(c5cccc6c5n(C)c(=O)n6C5CCC(=O)NC5=O)CC4)cc3C)c3cc(C(=O)N(C)C)[nH]c3c2F)C1 (stereo not drawn) [Example I-455, 6-(1-Acetyl-1,2,5,6-tetrahydropyridin-3-yl)-4-(4-(1-(1-(2,6-dioxopiperidin-3-yl)-3-methyl-2-oxo-2,3-dihydro-1H-benzo[d]1734midazole-4-yl)piperidin-4-yl)-2-methylphenyl)-7-fluoro-N,N-dim ethyl-1H-indole-2-carboxamide] |  | < 1 nM | > 90% | 1000 to 10000 nM
15 | COc1cc(N2CCN(CCOCC3CCN(c4ccnc(N5CC[C@@H]6[C@H]5CCCN6c5cccc(F)c5)c4)CC3)CC2)ccc1-c1cc(C2=CCCN(C(=O)CCn3ccnn3)C2)c(F)c2[nH]c(C(=O)N(C)C)cc12 [Example I-1049, 4-[4-(4-{2-[(1-{2-[(3aR,7aR)-4-(3-fluorophenyl)-hexahydro-2H-pyrrolo[3,2-b]pyridin-1-yl]pyridin-4-yl}piperidin-4-yl)methoxy]ethyl}piperazin-1-yl)-2-methoxyphenyl]-7-fluoro-N,N-dimethyl-6-{1-[3-(1,2,3-triazol-1-yl)propanoyl]-5,6-dihydro-2H-pyridin-3-yl}-1H-indole-2-carboxamide] |  |  |  | < 100 nM
